Measurements as given in ChEMBL document CHEMBL1201862, “PubChem BioAssay data set” (2004).
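Compound exposure: 48 hours, 5 concentrations, 96-well plates. GI50 is the concentration that inhibits growth by half.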 The source made the active and inactive calls. Rule as the data show it: active = GI50 up to about 1.1 µM and inactive = higher.

Experiments:
Test in all cases: NCI-60 cell line screen, 48 h
[1] = test system: 786-0
[2] = test system: A498
[3] = test system: A549
[4] = test system: ACHN
[5] = test system: CAKI-1
[6] = test system: CCRF-CEM
[7] = test system: COLO 205
[8] = test system: DU-145
[9] = test system: EKVX
[10] = test system: HCC 2998
[11] = test system: HCT-116
[12] = test system: HCT-15
[13] = test system: HL-60
[14] = test system: HOP-62
[15] = test system: HT-29
[16] = test system: Hs-578T
[17] = test system: IGROV-1
[18] = test system: K562
[19] = test system: KM12
[20] = test system: LOX IMVI
[21] = test system: M14
[22] = test system: MCF7
[23] = test system: MDA-MB-231
[24] = test system: MDA-MB-435
[25] = test system: MDA-N
[26] = test system: MOLT-4
[27] = test system: Malme-3M
[28] = test system: NCI-H226
[29] = test system: NCI-H23
[30] = test system: NCI-H460
[31] = test system: NCI-H522
[32] = test system: NCI/ADR-RES
[33] = test system: OVCAR-4
[34] = test system: OVCAR-5
[35] = test system: OVCAR-8
[36] = test system: PC-3
[37] = test system: RPMI-8226
[38] = test system: RXF 393
[39] = test system: SF-268
[40] = test system: SF-295
[41] = test system: SF-539
[42] = test system: SK-MEL-28
[43] = test system: SK-MEL-2
[44] = test system: SK-MEL-5
[45] = test system: SK-OV-3
[46] = test system: SN12C
[47] = test system: SNB-19
[48] = test system: SNB-75
[49] = test system: SR
[50] = test system: SW-620
[51] = test system: T47D
[52] = test system: U-251
[53] = test system: UACC-257
[54] = test system: UACC-62
[55] = test system: UO-31
[56] = test system: HOP-92
[57] = test system: OVCAR-3
[58] = test system: TK-10

## NC(=O)c1nnsc1NN=O
[1]
  GI50: > 100 µM (inactive)
[2]
  GI50: > 100 µM (inactive)
[3]
  GI50: > 100 µM (inactive)
[4]
  GI50: > 100 µM (inactive)
[5]
  GI50: > 100 µM (inactive)
[6]
  GI50: > 100 µM (inactive)
[7]
  GI50: > 100 µM (inactive)
[8]
  GI50: > 100 µM (inactive)
[9]
  GI50: > 100 µM (inactive)
[10]
  GI50: > 100 µM (inactive)
[11]
  GI50: > 100 µM (inactive)
[12]
  GI50: > 100 µM
[13]
  GI50: > 100 µM (inactive)
[14]
  GI50: > 100 µM (inactive)
[15]
  GI50: > 100 µM (inactive)
[16]
  GI50: > 100 µM (inactive)
[17]
  GI50: > 100 µM (inactive)
[18]
  GI50: > 100 µM (inactive)
[19]
  GI50: > 100 µM (inactive)
[20]
  GI50: > 100 µM (inactive)
[21]
  GI50: > 100 µM (inactive)
[22]
  GI50: > 100 µM (inactive)
[23]
  GI50: > 100 µM (inactive)
[24]
  GI50: > 100 µM (inactive)
[25]
  GI50: > 100 µM (inactive)
[26]
  GI50: > 100 µM (inactive)
[27]
  GI50: > 100 µM (inactive)
[28]
  GI50: > 100 µM (inactive)
[29]
  GI50: > 100 µM (inactive)
[30]
  GI50: > 100 µM (inactive)
[31]
  GI50: > 100 µM (inactive)
[32]
  GI50: > 100 µM (inactive)
[33]
  GI50: > 100 µM (inactive)
[34]
  GI50: > 100 µM (inactive)
[35]
  GI50: > 100 µM (inactive)
[36]
  GI50: > 100 µM (inactive)
[37]
  GI50: > 100 µM (inactive)
[38]
  GI50: > 100 µM (inactive)
[39]
  GI50: > 100 µM (inactive)
[40]
  GI50: > 100 µM (inactive)
[41]
  GI50: > 100 µM (inactive)
[42]
  GI50: > 100 µM (inactive)
[43]
  GI50: > 100 µM (inactive)
[44]
  GI50: > 100 µM (inactive)
[45]
  GI50: > 100 µM (inactive)
[46]
  GI50: > 100 µM (inactive)
[47]
  GI50: > 100 µM (inactive)
[48]
  GI50: 94.8 µM (inactive)
[49]
  GI50: > 100 µM (inactive)
[50]
  GI50: > 100 µM (inactive)
[51]
  GI50: > 100 µM (inactive)
[52]
  GI50: > 100 µM (inactive)
[53]
  GI50: > 100 µM (inactive)
[54]
  GI50: > 100 µM (inactive)
[55]
  GI50: > 100 µM (inactive)

## COc1ccc(S(=O)(=O)Nc2ccc(-c3csc(N4C(=O)/C(=C/c5ccccc5)N=C4c4ccccc4)n3)cc2)cc1Cl
[1]
  GI50: 46.5 µM (inactive)
[2]
  GI50: 11.3 µM (inactive)
[3]
  GI50: 35.1 µM (inactive)
[4]
  GI50: 34.8 µM (inactive)
[5]
  GI50: 62.8 µM (inactive)
[6]
  GI50: 43.5 µM (inactive)
[7]
  GI50: 34.5 µM (inactive)
[8]
  GI50: 27.8 µM (inactive)
[11]
  GI50: 35.3 µM (inactive)
[12]
  GI50: 20.2 µM
[13]
  GI50: 24.6 µM (inactive)
[14]
  GI50: 36.4 µM (inactive)
[56]
  GI50: 24.4 µM (inactive)
[15]
  GI50: > 100 µM (inactive)
[16]
  GI50: 37.5 µM (inactive)
[17]
  GI50: 38.6 µM (inactive)
[18]
  GI50: 34.3 µM (inactive)
[19]
  GI50: 33.7 µM (inactive)
[20]
  GI50: 32.5 µM (inactive)
[21]
  GI50: 24.8 µM (inactive)
[22]
  GI50: 36.8 µM (inactive)
[23]
  GI50: 16.1 µM (inactive)
[24]
  GI50: 27.5 µM (inactive)
[25]
  GI50: 38.7 µM (inactive)
[26]
  GI50: 25.1 µM (inactive)
[27]
  GI50: 38.3 µM (inactive)
[28]
  GI50: 33.2 µM (inactive)
[29]
  GI50: 23.2 µM (inactive)
[30]
  GI50: 31.3 µM (inactive)
[31]
  GI50: 39 µM (inactive)
[32]
  GI50: 45.4 µM (inactive)
[57]
  GI50: 36.2 µM (inactive)
[33]
  GI50: 27.2 µM (inactive)
[34]
  GI50: 47.2 µM (inactive)
[35]
  GI50: 31.5 µM (inactive)
[36]
  GI50: 25.4 µM (inactive)
[38]
  GI50: 24.4 µM (inactive)
[39]
  GI50: 31.4 µM (inactive)
[40]
  GI50: 41.7 µM (inactive)
[41]
  GI50: 41.6 µM (inactive)
[42]
  GI50: 57.4 µM (inactive)
[43]
  GI50: 25.9 µM (inactive)
[44]
  GI50: 28.4 µM (inactive)
[45]
  GI50: 79.3 µM (inactive)
[46]
  GI50: 65.6 µM (inactive)
[47]
  GI50: 44.2 µM (inactive)
[48]
  GI50: 29.2 µM (inactive)
[49]
  GI50: 28.1 µM (inactive)
[50]
  GI50: 43.7 µM (inactive)
[51]
  GI50: 17.9 µM (inactive)
[58]
  GI50: 47.4 µM (inactive)
[52]
  GI50: 23.7 µM (inactive)
[53]
  GI50: 30.9 µM (inactive)
[54]
  GI50: 16.8 µM (inactive)
[55]
  GI50: 5.62 µM (inactive)
